# Measured values from patent US12116356B2, “N-heterocyclic five-membered ring-containing capsid protein assembly inhibitor, pharmaceutical composition thereof, and use thereof” (CHIA TAI TIANQING PHARMACEUTICAL GROUP CO., LTD., priority 2018, dated 2024).
# What was measured:
# HBV DNA in HepAD38 cells = assay: In vitro cell HBV DNA inhibitory activity (anti-HBV activity) in HepAD38 cells; format: cell-based; details: Hepatitis B virus, 144 h; anti-HBV activity in HepAD38 cells, 6 days treatment, intracellular capsid HBV DNA by qPCR; read-out: EC50
# Description: (§1) A bottle of HepG2.2.15 or HepAD38 cells in good exponential growth state was taken, washed once by adding 5 mL PBS, and then thereto was added 3 mL trypsin. After digesting at room temperature for 5 min, 2 mL trypsin was discarded, and then the sample was placed in a cell culture incubator and digested for 10 min. The cells were taken out from time to time and observed under a microscope (whether the cells were individually round and there was no adhesion between the cells). 10 mL complete medium was added to terminate the digestion. After pipetting into a single cell suspension, 10 μL of the cell suspension was taken out for cell counting with a cell counter, and then diluted with a complete medium and adjusted to a cell density of 1*10^5 cells/mL. Then the cell suspension was seeded at 1 mL/well in a 24-well plate with a multi-channel pipette (the 24-well plate was coated with 50 μg/mL Collagen I solution in advance), and cultured in a constant temperature CO2 incubator for 48 h.
# (§2) Different compounds dissolved in DMSO were subjected to two-fold gradient dilution (10 concentrations in total) with complete medium. The compound was added, and fresh medium containing the compound was used to replace the spent medium every 72 hours. The cells were treated with the compound for 6 days. After the supernatant was siphoned off, 300 μL lysate (10 mM Tris-HCl, 1 mM EDTA, and 1% NP-40) was added to each well. After lysing at room temperature for 10 min, DNA was extracted, and HBV DNA in the intracellular viral capsid was measured by real-time fluorescence quantitative PCR. The inhibition rate was calculated based on the Ct value, and the EC50 value was calculated by the four-parameter method.
# [1] = test system: HBV DNA in HepG2.2.15 cells; assay: In vitro cell HBV DNA inhibitory activity (anti-HBV activity) in HepG2.2.15 cells; format: cell-based; details: Hepatitis B virus, 144 h; anti-HBV activity in HepG2.2.15 cells, 6 days treatment, intracellular capsid HBV DNA by qPCR; read-out: EC50
# Description: as §1, §2
# [2] = In vitro cytotoxicity (CCK-8) in HepAD38 cells; format: cell-based; details: human
# Description: (§3) A bottle of HepG2.2.15 or HepAD38 cells in good exponential growth state was taken, washed once by adding 5 mL PBS, and then thereto was added 3 mL trypsin. The sample was digested in a cell culture incubator, and taken out from time to time and observed under a microscope. When the cells just fell off, 1 mL trypsin was discarded. The residual liquid was placed in a cell culture incubator at 37° C. and digested for 8-15 min. The cells were taken out and observed under a microscope (whether the cells were individually round and there was no adhesion between the cells). 5 mL MEM medium was added for cell resuspension. The cells were then subjected to cell counting with a cell counter, diluted with a complete medium, and adjusted to a cell density of 2*10^5 cells/mL. Then the cells were seeded at 100 μL/well in a 96-well plate with a multi-channel pipette (the 96-well plate was coated with 50 μg/mL Collagen I solution in advance), and cultured in a constant temperature CO2 incubator for 24 h. The cells were treated by drug administration, and fresh medium containing the compound was used to replace the spent medium every 3 days. To control wells was added a drug-free medium containing 0.5% DMSO, and a control well containing a common medium was set up. 6 days after the administration, CCK-8 was added at 10 μL/well. After 1 to 2 hours, the absorbance was detected with microplate reader at 450 nm, and the inhibition rate and the CC50 were calculated.
# [3] = In vitro cytotoxicity (CCK-8) in HepG2.2.15 cells; format: cell-based; details: human
# Description: as §3
# [4] = Stability of human liver microsomes in vitro; format: in vitro ADME
# Description: (§4) 300 μL of a final incubation system contains 30 μL of liver microsomes (protein concentration: 0.15 mg/mL), 30 μL NADPH+MgCl2, 3 μL substrate (formulated with acetonitrile), and 237 μL PBS buffer. Duplicate incubation systems of 0.3 mL each were formulated for each species. A total volume of 270 μL of a uniformly mixed solution of the substrate and the enzyme was formulated in each tube, the solution and NADPH were pre-incubated at 37° C. for 5 minutes, respectively. Then 30 μL of the mixed solution of NADPH+MgCl2 was added for reaction. 50 μL of the reaction solution was taken out at 0, 10, 30, and 60 mins, and the reaction was terminated with 300 μL of ice acetonitrile containing an internal standard.
# (§5) Sample pre-treatment: To 50 μL of the incubated sample was added 300 μL of ice acetonitrile containing diazepam as an internal standard and then precipitated. After vortexing for 5 minutes, the sample was centrifugated (12000 rpm, 4° C.) for 10 minutes. 75 μL of the supernatant was pipetted into a 96-well plate, and then diluted with 75 μL ultrapure water and mixed uniformly. 0.5 μL of the resulting solution was injected and analyzed by LC-MS/MS.
# [5] = Stability of rat liver microsomes in vitro; format: in vitro ADME
# Description: as §4, §5
# [6] = Solubility in PBS buffer at pH 7.4; format: physicochemical; details: aqueous buffer, PBS buffer pH 7.4, 25° C.
# Description: […] After standing at 25° C. for 16 hours, the system was centrifugated (12000 rpm, room temperature) for 10 min. 20 μL of the supernatant was taken out, and the reaction was terminated with 400 μL of acetonitrile containing an internal standard (diazepam 20 ng/mL). 30 μL of the supernatant was pipetted, and 150 μL of 50% acetonitrile aqueous solution was added thereto for dilution and mixed uniformly. 0.5 μL of the resulting solution was injected for analysis.
# [7] = Stability of mouse liver microsomes in vitro; format: in vitro ADME
# Description: as §4, §5
SMILES,EC50 (HBV DNA in HepAD38 cells) [nM],EC50 [1] [nM],CC50 at 6 days [2] [nM],CC50 at 6 days [3] [nM],Remaining (%) at 60 min [4] [%],Remaining (%) at 60 min [5] [%],solubility at 16 h [6] [µM],Remaining (%) at 60 min [7] [%]
"C#CCNC(=O)C(=O)c1c(C)c(C(=O)Nc2ccc(F)c(C#N)c2)c(C)n1C [Example 1, N-(3-cyano-4-fluorophenyl)-1,2,4-trimethyl-5-(2-oxo-2-(prop-2-yn-1-ylamino)acetyl)-1H-pyrrole-3-carboxamide]",10 to 50,10 to 50,> 100000,> 100000,69,44,,
"Cc1c(C(=O)Nc2ccc(F)c(C#N)c2)c(C)n(C)c1C(=O)C(=O)NC12CC(C1)C2 [Example 2, 5-(2-(Bicyclo[1.1.1]pentan-1-ylamino)-2-oxoacetyl)-N-(3-cyano-4-fluorophenyl)-1,2,4-trimethyl-1H-pyrrole-3-carboxamide]",< 10,< 10,> 100000,,,,22.1,
"Cc1c(C(=O)Nc2ccc(F)c(C#N)c2)c(C)n(C)c1C(=O)C(=O)NC1(C)COC1 [Example 6, N-(3-cyano-4-fluorophenyl)-1,2,4-trimethyl-5-(2-(3-methyloxetan-3-ylamino)-2-oxoacetyl)-1H-pyrrole-3-carboxamide]",10 to 50,10 to 50,> 100000,> 100000,79.1,74.9,81.8,55
"Cc1c(C(=O)Nc2ccc(F)c(C#N)c2)c(C)n(C)c1C(=O)C(=O)NC1CCOC1 (stereo not shown) [Example 7, N-(3-cyano-4-fluorophenyl)-1,2,4-trimethyl-5-(2-oxo-2-((tetrahydrofuran-3-yl)amino)acetyl)-1H-pyrrole-3-carboxamide]",< 10,10 to 50,> 100000,> 100000,83.8,70.5,19.8,81.6
"Cc1c(C(=O)Nc2ccc(F)c(C#N)c2)c(C)n(C)c1C(=O)C(=O)NC(C)(C)CO [Example 8, N-(3-cyano-4-fluorophenyl)-5-(2-((1-hydroxy-2-methylpropan-2-yl)amino)-2-oxoacetyl)-1,2,4-trimethyl-1H-pyrrole-3-carboxamide]",< 10,< 10,> 100000,> 100000,70.6,52.0,80.9,
"COC(=O)C(C)(C)NC(=O)C(=O)c1c(C)c(C(=O)Nc2ccc(F)c(C#N)c2)c(C)n1C [Example 9, methyl (2-(4-((3-cyano-4-fluorophenyl)carbamoyl)-1,3,5-trimethyl-1H-pyrrole-2-yl)-2-oxoacetylamino)-2-methylpropionate]",< 10,10 to 50,> 100000,> 100000,,,9.6,
Cc1c(C(=O)Nc2ccc(F)c(C#N)c2)c(C)n(C)c1C(=O)C(=O)N[C@H](C)C(F)(F)F [Example 11],< 10,< 10,> 100000,> 100000,,56.8,7.5,47.7
"Cc1c(C(=O)Nc2ccc(F)c(C#N)c2)c(Br)n(C)c1C(=O)C(=O)NC(C)(C)C [Example 15, 2-bromo-5-(2-(tert-butylamino)-2-oxoacetyl)-N-(3-cyano-4-fluorophenyl)-1,4-dimethyl-1H-pyrrole-3-carboxamide]",< 10,10 to 50,> 100000,,,,4.9,
"Cc1c(C(=O)Nc2ccc(F)c(C#N)c2)c(Cl)n(C)c1C(=O)C(=O)NC(C)(C)C [Example 17, 5-(2-(tert-butylamino)-2-oxoacetyl)-2-chloro-N-(3-cyano-4-fluorophenyl)-1,4-dimethyl-1H-pyrrole-3-carboxamide]",,10 to 50,> 100000,> 100000,,44.9,,47.4
"Cc1c(C(=O)Nc2ccc(F)c(C#N)c2)c(C)n(C)c1C(=O)C(=O)NC1(CO)CC1 [Example 27, N-(3-cyano-4-fluorophenyl)-5-(2-((1-(hydroxymethyl)cyclopropyl)amino)-2-oxoacetyl)-1,2,4-trimethyl-1H-pyrrole-3-carboxamide]",10 to 50,10 to 50,> 100000,> 100000,,,,
"Cc1c(C(=O)Nc2ccc(F)c(C#N)c2)c(Cl)n(C)c1C(=O)C(=O)N[C@@H](C)C(F)(F)F [Example 29, (S)-2-chloro-N-(3-cyano-4-fluorophenyl)-1,4-dimethyl-5-(2-oxo-2-((1,1,1-trifluoroprop-2-yl)amino)acetyl)-1H-pyrrole-3-carboxamide]",< 10,10 to 50,> 100000,> 100000,99.6,88.7,,99.2
"Cc1c(C(=O)Nc2ccc(F)c(C#N)c2)c(Cl)n(C)c1C(=O)C(=O)N[C@H](C)C(F)(F)F [Example 30, (R)-2-chloro-N-(3-cyano-4-fluorophenyl)-1,4-dimethyl-5-(2-oxo-2-((1,1,1-trifluoroprop-2-yl)amino)acetyl)-1H-pyrrole-3-carboxamide]",10 to 50,< 10,> 100000,> 100000,,,,
"Cc1c(C(=O)Nc2ccc(F)c(N)c2)c(C)n(C)c1C(=O)C(=O)N[C@@H](C)C(F)(F)F [Example 42, (S)—N-(3-amino-4-fluorophenyl)-1,2,4-trimethyl-5-(2-oxo-2-((1,1,1-trifluoroprop-2-yl)amino)acetyl)-1H-pyrrole-3-carboxamide]",10 to 50,< 10,,> 100000,102,85.3,,61.9
"Cc1c(C(=O)Nc2ccc(F)c(C#N)c2)c(C)n(C)c1C(=O)C(=O)NC1(C)CS(=O)(=O)C1 [Example 45, N-(3-cyano-4-fluorophenyl)-1,2,4-trimethyl-5-(2-((3-methyl-1,1-dioxidothietan-3-yl)amino)-2-oxoacetyl)-1H-pyrrole-3-carboxamide]",10 to 50,< 10,,,73,47,,
